Series [1] has as its system vero cells. On the set-up: method as in PMID 34603237. Particulars: cited from earlier work.
Series [2] concerns HFF cells. The experiment in a line: Cytotoxicity assay, HFF cells. The class given is cell-based. The settings on record: CC50 HFF versus IC50 B. duncani. The source says: (§1) The IC50 value represents a standard metric indicating the concentration of a drug or compound necessary to impede a biological process or inhibit cell growth. In this experiment, the IC50 values of six different compounds against B. duncani in vitro were compared with their IC50 values for BdPyK I activity. […] To contextualize these findings, the CC50 values for vero cells and HFF cells from cytotoxicity assay data were considered collectively. […] Considering the activity, selectivity, and potential toxicity, this study conducted a comprehensive evaluation of the selectivity index (SI).

Series [3] relates to vero cells. The experiment in a line: Cytotoxicity assay, vero cells. The class given is cell-based. Particulars: CC50 Vero versus IC50 B. duncani.
Source text: as §1

Series [4] concerns B. duncani. The series is described as follows: In vitro growth inhibition assay of Babesia duncani (SYBR Green, 72 h). The series is classed as cell-based. Particulars: for parasite growth inhibition: at approximately 40 μM.
Series [5] has as its target T1, BdPyK I (Babesia duncani, UniProt A0AAD9PKI2). The experiment in a line: BdPyK I enzyme inhibition, indirect coupled lactate dehydrogenase assay (NADH at 340 nm). The class given is biochemical. The source says:
This study aimed to investigate the effects of six small-molecule compounds on the enzyme activity of BdPyK I. These selected compounds, including PKM2 inhibitor, shikonin, tannic acid, apigenin, pioglitazone, and rosiglitazone, were initially dissolved in their respective stock concentrations using dimethyl sulfoxide (DMSO) or absolute ethanol as solvents. Subsequently, an indirect coupling lactate dehydrogenase assay was employed to evaluate the influence of these compounds on BdPyK I enzyme activity.
To conduct standard enzyme kinetics analysis, we employed a spectrophotometer (BioTek, located in Winooski, VT, USA) to monitor the degradation of NADH at 340 nm wavelength. At 37 °C, the oxidation of 1 micromole of NADH per minute was defined as one unit of PyK activity. Samples were measured continuously at 2, 7, 12, 17, 22, and 27 min. In order to investigate the influence of pH, Mg^2+, and K^+ concentrations on activity, tests were conducted within the pH range of 4.0–8.0 and Mg^2+ and K^+ concentrations ranging from 0 to 200 mM, including concentrations of 0, 25, 50, 75, 100, 125, 150, 175, and 200 mM. A reaction system with a total volume of […] was designed, comprising 50 mM Tris-HCl buffer (pH 7.5), 50 mM MgCl2, 20 mM KCl, 3 mM PEP (MilliporeSigma), 3 mM ADP (MilliporeSigma), 0.5 mM NADH (MilliporeSigma), 100 ng recombinant lactate dehydrogenase (rBdLDH), and 100 ng BdPyK I. Enzyme activity was assessed by calculating the initial rate of NADH degradation within the first 5 min and determining the relative percentage activity.
Under the conditions of 3 mM PEP and 3 mM ADP, the influence of six different small-molecule compounds on the enzymatic activity of BdPyK I was investigated across varying concentrations (0–500 μM). […] The group with the addition of DMSO was designated as the negative control group. The inhibition rate was calculated using the following formula: Inhibitor (%) = (ΔAcontrol − ΔAsample)/ΔAcontrol × 100%. All experiments were independently repeated three times to enhance the reliability and accuracy of the results. Following completion of the experiments, enzyme activity data were analyzed using GraphPad Prism 8.0 software. IC50 values for each small-molecule compound were calculated using software analysis functions. The IC50 value represents the compound concentration required to decrease enzyme activity by 50% and serves as a fundamental parameter for evaluating the inhibitory effect of compounds on enzyme activity.

Series [6] concerns HFF cells. On the set-up: method as in PMID 34603237. Particulars: cited from earlier work.
For series [7], the target named is T1, BdPyK I. The experiment in a line: Enzyme kinetics of BdPyK I with gradient concentrations of substrates PEP and ADP. Particulars: substrate of BdPyK I.
Procedure: (§2) To conduct standard enzyme kinetics analysis, we employed a spectrophotometer (BioTek, located in Winooski, VT, USA) to monitor the degradation of NADH at 340 nm wavelength. At 37 °C, the oxidation of 1 micromole of NADH per minute was defined as one unit of PyK activity. Samples were measured continuously at 2, 7, 12, 17, 22, and 27 min. In order to investigate the influence of pH, Mg^2+, and K^+ concentrations on activity, tests were conducted within the pH range of 4.0–8.0 and Mg^2+ and K^+ concentrations ranging from 0 to 200 mM, including concentrations of 0, 25, 50, 75, 100, 125, 150, 175, and 200 mM. A reaction system with a total volume of 200 mL was designed, comprising 50 mM Tris-HCl buffer (pH 7.5), 50 mM MgCl2, 20 mM KCl, 3 mM PEP (MilliporeSigma), 3 mM ADP (MilliporeSigma), 0.5 mM NADH (MilliporeSigma), 100 ng recombinant lactate dehydrogenase (rBdLDH), and 100 ng BdPyK I. Enzyme activity was assessed by calculating the initial rate of NADH degradation within the first 5 min and determining the relative percentage activity.
(§3) Subsequently, Michaelis–Menten equations for the reactants PEP and ADP were formulated based on gradient concentrations, and corresponding enzyme kinetics curves were delineated.
Series [8] deals with Nc1ncnc2c1ncn2[C@@H]1O[C@H](COP(=O)(O)OP(=O)(O)O)[C@@H](O)[C@H]1O. The experiment in a line: purified protein, by the assay type. The settings on record: other: substrate of BdPyK I, gradient concentration; pH 7.5; 37.0 °C.
Procedure: as §2, §3
For series [9], the system named is C=C(OP(=O)(O)O)C(=O)O. The series is described as follows: purified protein, by the assay type. Particulars: other: substrate of BdPyK I, gradient concentration; pH 7.5; 37.0 °C.
Procedure: as §2, §3
On the set-up of series [10]: method as in PMID 34603237. The settings on record: in vivo experiments with Babesia rodents; cited from earlier work.
Series [11] has as its target BdLDH. The experiment in a line: Effect of compounds on BdLDH enzyme activity (counter-screen of the coupled assay). The series is classed as biochemical, Babesia duncani. The settings on record: BdLDH activity evaluated separately. A general note: The purpose of a counterscreen is to sort out artefacts and off-target activity.
[12] abbreviates: Babesia duncani, in vitro culture, 72 h, Table 3, read-out: IC50 B. duncani.
The mark [13] stands for this setting: 3 mM PEP and 3 mM ADP, compound 0–500 μM, read-out: IC50 PyK I.
Where [14] appears, read: Babesia duncani, 72 h incubation, SYBR Green, read-out: IC50 of B. duncani growth inhibition (Figure 10).

Several values for one entry are separate records, joined by “and”; a condition that tells them apart may be missing. Equal values may be shown once. Read-outs that look alike come from different tables or passages of the source.

Usually CC50 stands for the concentration that lowers cell viability or growth by half. The term IC50 denotes the concentration that inhibits the measured activity by half. The term Vmax denotes the top rate of the reaction or transport when substrate is in excess. The Km is the concentration of substrate that gives half-maximal velocity. As usually defined, the kcat is the maximal rate divided by the concentration of active sites. One may read the kcat/Km as the second-order rate constant that governs catalysis at low substrate concentration.

T1 sequence (A0AAD9PKI2 entry or part of it): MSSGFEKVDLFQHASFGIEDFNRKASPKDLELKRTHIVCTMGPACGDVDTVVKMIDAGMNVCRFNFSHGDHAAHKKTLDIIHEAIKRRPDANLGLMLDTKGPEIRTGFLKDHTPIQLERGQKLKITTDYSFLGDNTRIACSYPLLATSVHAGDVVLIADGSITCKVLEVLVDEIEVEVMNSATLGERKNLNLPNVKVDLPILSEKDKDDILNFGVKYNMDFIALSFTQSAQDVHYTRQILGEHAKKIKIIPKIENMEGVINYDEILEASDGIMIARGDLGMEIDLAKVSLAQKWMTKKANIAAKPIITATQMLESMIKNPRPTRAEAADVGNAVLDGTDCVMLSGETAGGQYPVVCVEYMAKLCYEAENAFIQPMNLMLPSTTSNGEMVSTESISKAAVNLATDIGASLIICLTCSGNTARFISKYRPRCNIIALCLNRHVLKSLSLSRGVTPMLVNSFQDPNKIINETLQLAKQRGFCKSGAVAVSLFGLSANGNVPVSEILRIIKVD

For `CC(C)=CC[C@@H](O)C1=CC(=O)c2c(O)ccc(O)c2C1=O` [Shikonin], the values for the CC50 in series [1] and in series [6] were 2.34 ± 0.29 µM and 0.63 ± 0.32 µM, respectively. Also, in series [2], the “Selectivity Index (SI) HFF” value is listed as 0.17. Besides, the “Selectivity Index (SI) Vero” value in series [3] came to 0.64. Further, the IC50 in [4] (setting [12]) worked out at 3.68 ± 0.48 µM; in series [5] (setting [13]) it was 16.5 µM.
With `CCc1ccc(CCOc2ccc(CC3SC(=O)NC3=O)cc2)nc1` (stereo not shown) [Pioglitazone], the IC50 came out at 15.4 µM in series [4] (setting [14]) and 27.5 µM in [5] (setting [13]). The same compound gave a parasite growth inhibition in series [4] (72 h) of 80%.
For the compound `CC1=C(CSC(=S)N2CCCCC2)C(=O)c2ccccc2C1=O` [PKM2 inhibitor], the CC50 in series [1] is 39.3 ± 8.32 µM; in series [6], 18.7 ± 1.99 µM. In addition, in [2], the “Selectivity Index (SI) HFF” value is on record as 116. The “Selectivity Index (SI) Vero” value in series [3] is reported as 243. Also, the IC50 amounted to 0.16 ± 0.08 µM in [4] (setting [12]) and 10.9 µM in [5] (setting [13]). Besides, the growth inhibition rate in [4] (at approximately 2 μM, 72 h) is recorded as 85%.
In the case of `CN(CCOc1ccc(CC2SC(=O)NC2=O)cc1)c1ccccn1` (stereo not shown) [Rosiglitazone], the results for the IC50 in [4] (setting [14]) and in [5] (setting [13]) were 20.9 µM and 7.36 µM, respectively. The same compound yielded a parasite growth inhibition in series [4] (72 h) of 80%.
For the compound `Nc1ncnc2c1ncn2[C@@H]1O[C@H](COP(=O)(O)OP(=O)(O)O)[C@@H](O)[C@H]1O` [ADP], the Kcat in series [7] worked out at 16 S^−1. The maximum rate (Vmax) in series [7] (gradient concentration) is reported as 0.3234 ± 0.018 mM/min.
BdPyK I (Babesia duncani): in series [8], the Km was 310 µM and 313.6 ± 24 µM. Further, in series [9], the Km turned out to be 450 ± 104 µM, the Vmax was 370 µM/min, the kcat amounted to 18.3 s⁻¹ and the kcat/Km came out at 40100 M⁻¹ s⁻¹.
For `O=c1cc(-c2ccc(O)cc2)oc2cc(O)cc(O)c12` [Apigenin], the CC50 in series [1] was 58.2 ± 2.67 µM; in series [6], 36 ± 2.95 µM. Moreover, the “toxicity in vivo” value in series [10] is recorded as “high toxicity”. Also, the “Selectivity Index (SI) HFF” value in [2] stood at 12.8. The “Selectivity Index (SI) Vero” value in [3] was determined as 20.64. Further, the values for the IC50 in series [4] (setting [12]) and in [5] were 2.81 ± 1.06 µM and 7.49 µM, respectively.
With Tannic acid, the CC50 is 53 ± 2.37 µM in [1] and 36.5 ± 3.88 µM in series [6]. Besides, the 50% inhibitory concentration (IC50) in series [11] is 1.32 µM; in series [4] (in vitro culture, 72 h, Table 3, read-out: IC50 B. duncani), 1.71 ± 0.33 µM; in series [5] (setting [13]), 0.03 µM; in series [5] (3 mM PEP and 3 mM ADP, read-out: IC50 on BdPyK I (Figure 9)) it was 0.0332 µM; in series [5] (Table 3, read-out: IC50 PyK I Activity), 0.03 µM.

(Values after PMC11205445, “Babesia duncani Pyruvate Kinase Inhibitor Screening and Identification of Key Active Amino Acid Residues” (Microorganisms, 2024).)
